Consider six compounds from PMC12648657, “Sc(III) Complexes of 1,4,7-Triazacyclononane-1,4,7-triacetic Acid and Its Monoamides” (Inorganic Chemistry, 2025).

A short description of data set [1]: Potentiometric determination of stability constants of Sc^III complexes. The data set is classed as physicochemical. The note with it: for log K, [Sc(L)] + HL ↔ [M(HL)(L)]: I = 0.1 M NMe4Cl, coordination of second ligand molecule. The protocol:
Potentiometry was carried out according to the previously published procedures; for the preparation of stock solutions and chemicals, equipment, electrode system calibration, titration procedures and data treatment, see refs – . Throughout the paper, pH means −log[H^+]. The protonation and stability constants were determined in 0.1 M (NMe4)Cl at 25.0 °C with pK w = 13.81. The Sc^III–H3nota system was studied by in-cell titrations from data obtained in the pH range 1.6–12 with ∼40 points per titration and four parallel titrations (c L = 0.004 M, c Sc = 0.004 or 0.002 M). The Sc^III–H2 L ^1 and Sc^III–H2 L ^2 systems were studied by a combination of the out-of-cell and in-cell methods. The out-of-cell method was performed at 1:1 ligand-to-metal ratio (c L = c Sc = 0.004 M, pH 1.5–5.0, 15–25 points per titration), and the in-cell method was performed at 1:1 and 2:1 ligand-to-metal ratios (c L = c Sc = 0.004, pH 5.0–12.0 or until precipitation of hydroxide, 15–20 points per titration; or c L = 0.004 M, c M = 0.002 M, pH 2.0–11.5, ∼40 points per titration). […] Stability constants for the Sc^III–OH^– system were taken from the literature. Protonation constants of ligands were adopted from literature–H3nota: 13.17, 5.74, 3.22, 1.96, 0.70; H2 L ^1 : 13.03, 4.24, 2.04, 0.67; H2 L ^2 : 12.93, 4.91, 2.48, 0.92.
High thermodynamic stability of complexes is an important property of metal complexes used in radio medicine. Thus, stability constants of the Sc^III complexes with the studied chelators were determined by potentiometry. Complexation of Sc^III by H3nota was fast, and thus, it was studied by the direct titration technique (in-cell method). Complexation of Sc^III by H2 L ^1 and H2 L ^2 was slower in the acidic region (pH < 3) and, thus, the batch titrations (out-of-cell method) had to be applied. In addition, the systems were studied in-cell in the neutral and weakly alkaline regions. The strongly alkaline region cannot be studied in the Sc^III–H2 L ^1 and Sc^III–H2 L ^2 systems due to decomposition of the complexes and precipitation of Sc^III hydroxide.

The conditions of data set [2]: comparison table; literature value; cited from earlier work.
The conditions of data set [3]: comparison table; literature value; cited from earlier work. This is another data set of the same source.
Data set [4] in a line: Solution stability of Sc^III complexes (alkaline solution, excess oxalate). The note with it: slowly decompose in strongly alkaline solutions or under excess oxalate, yielding insoluble Sc^III oxalate or hydroxide. The data set is classed as physicochemical. The protocol:
The NMR experiments were carried out on the Bruker Avance III 600 (with a cryoprobe), Bruker Avance III HD 400 or Varian VNMRS 300 MHz or Varian Unity Inova-400 spectrometers in 5 mm tubes. Chemical shifts are given in ppm, and the coupling constants are in Hz. All NMR spectra were collected at 25 °C. The shifts were referenced with external standards: 0.1% tBuOH in D2O (^1H δ 1.25 ppm, ^13C δ 30.30 ppm). External reference for ^45Sc was 0.1 M solution of Sc(ClO4)3 in 1 M aq. HClO4. The pH of samples was adjusted with diluted aq. HCl or aq. LiOH (∼0.5%), or maintained with 0.25 M imidazole/HCl buffer. Binary complexes were prepared by mixing solid ligands (typically at a final concentration of 25 mM) with standardized ScCl3 solution in Sc/L 1:1 or 1:2 molar ratios. Ternary complexes with oxalate anions were studied by mixing a lithium(I) oxalate aq. solution (25 mM) and variable amounts of stock solutions (200 mM) of Sc^III complexes with the studied ligands.

For data set [5] the following is noted: Sc^III complexes of other ligands; literature values; cited from earlier work.
For data set [6] the following is noted: comparison table; literature value; cited from earlier work. The source holds these as a separate data set.
The conditions of data set [7]: comparison table; literature value; cited from earlier work. This is another data set of the same source.
The conditions of data set [8]: comparison table; literature value; cited from earlier work. This is another data set of the same source.

Molecules are shown by their SMILES.

For `CCNC(=O)CN1CCN(CC(=O)O)CCN(CC(=O)O)CC1` [H2 L ^1], in data set [1] (I = 0.1M (NMe4)Cl, 25 °C), the “Overall stability constant logβ, Sc + L ⇄ [Sc(L)]” value is on record as 16.64(1); the “log K, Sc + L ↔ [Sc(L)]” value was 16.64; the “log K, [Sc(L)(OH)] + H+ ↔ [M(L)(H2O)]” value was found to be 7.36. In data set [1] (25 °C), the “log K, [Sc(L)] + HL ↔ [M(HL)(L)]” value is reported as 2.86. For the same compound, the “Stability constant log K ML, Cu^II” value in data set [2] is 21.37. In addition, the “Stability constant log K ML, Zn^II” value in data set [3] is 18.89. Moreover, the “Stability of Sc^III complex in solution” value in data set [4] is on record as “limited stability”.

Consider `O=C(O)CN1CCN(Cc2cccc(C(=O)O)n2)CCN(CP(=O)(O)O)CC1` [H4mpatcn-P], for which, in data set [5], the “log K [M(L)] of Sc^III complex” value was 21–26.

With `O=C([O-])CN1CCN(CC(=O)[O-])CCN(Cc2cccc(C(=O)[O-])n2)CC1.[Sc+3]` [[Sc(mpatcn)]], in data set [5], the “log K [M(L)] of Sc^III complex” value is listed as 21–26.

Take `O=C([O-])CN(CCN(CC(=O)[O-])CC(=O)[O-])CCN(CC(=O)[O-])CC(=O)[O-].[Sc+3]` [[Sc(dtpa)]^2–]: the “log K [M(L)] of Sc^III complex” value in data set [5] is 27.43.

Turning to `O=C(O)CN1CCN(CC(=O)O)CCN(Cc2cccc(P(=O)(O)O)n2)CC1` [H4mpatcn-PyP], the “log K [M(L)] of Sc^III complex” value in data set [5] is given as 21–26.

With `O=C(O)CN1CCN(CC(=O)O)CCN(CC(=O)O)CC1` [H3nota, 1,4,7-Triazacyclononane-1,4,7-triacetic Acid], the “Stability constant log K ML, Pb^II” value in data set [6] is on record as 18.18. Further, the “Stability constant log K ML, Ga^III” value in data set [7] is given as 29.60. In addition, in data set [1] (I = 0.1M (NMe4)Cl, 25 °C), the “Overall stability constant logβ, Sc + 2 L + H+ ⇄ [Sc(HL)(L)]” value is recorded as 35.78(6); the “Overall stability constant logβ, Sc + L + H2O ⇄ [Sc(L)(OH)] + H+” value was 11.73(2); the “Overall stability constant logβ, Sc + L ⇄ [Sc(L)]” value is 19.50(1); the “log K, Sc + L ↔ [Sc(L)]” value was determined as 19.50. Further, the “log K, [Sc(L)(OH)] + H+ ↔ [M(L)(H2O)]” value in data set [1] (I = 0.1M (NMe4)Cl, 25 °C) is given as 7.77. In addition, the “log K, [Sc(L)] + HL ↔ [M(HL)(L)]” value in data set [1] (25 °C) is listed as 3.11. The “Stability constant log K ML, Sc^III” value in data set [1] (comparison table) was determined as 19.50. In data set [8], the “Stability constant log K ML, Cd^II” value is recorded as 17.87. Further, in data set [2], the “Stability constant log K ML, Cu^II” value was 23.33. Besides, the “Stability constant log K ML, Zn^II” value in data set [3] is on record as 22.32.
